The subject of one assay is MIA PaCa-2 cells. Description: Cell Viability Assay, MIA PaCa-2. It is filed as cell-based. The note with it: human pancreatic carcinoma, CellTiter-Glo. The protocol: (§1) MIA PaCa-2 (human pancreatic carcinoma; ATCC CRL-1420) or A549 (human lung carcinoma; ATCC CCL-185) cells were cultured in RPMI 1640 medium containing 10% fetal bovine serum and 1×penicillin/streptomycin/L-glutamine. Cells were seeded in 384-well plates at a density of 1.67E+04 cells/mL and incubated at 37° C., 5% CO2, overnight. Serially-diluted compound or DMSO was added to the cells, and plates were incubated at 37° C., 5% CO2 for 72 h. Cell viability was measured using a CellTiter-Glo® Luminescent Cell Viability Assay kit (Promega) according to the manufacturer's protocol. The luminescence signal of treated samples was normalized to DMSO control, and data were analyzed using a 4-parameter logistic model to calculate IC50 values.
(§2) The following data (Table 3) categorizes the IC50 of each compound for inhibiting enzymatic activity of KRAS^G12C in the indicated cells.

A further assay addresses KRAS^G12C (Homo sapiens, UniProt P01116, C118A/G12C). Description: Coupled Nucleotide Exchange Assay. It is filed as biochemical. The following applies: GDP-bound KRAS (aa 1-169) G12C/C118A; 2 h compound pre-incubation; SOS-mediated exchange, 30 min; cRAF binding (AlphaLISA). The essentials: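 GDP-bound His-tagged KRAS aa 1-169 (G12C/C118A) pre-incubated 2 h with compound in 25 mM HEPES pH 7.4, 10 mM MgCl2, 0.01% Triton X-100 (±0.1% BSA), then SOS (aa 564-1049) plus GTP added for 30 min. GST-cRAF RBD binding read by AlphaLISA; DMSO-normalized, 4-parameter fit gives IC50.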

For a further assay, the system named is A549 cells. Description: Cell Viability Assay, A549. It is filed as cell-based. The following applies: human lung carcinoma, 72 h, CellTiter-Glo. The protocol: as §1, §2
On the technique in general: Cellular ATP, detected with luciferase, serves as a proxy for viable cell number.

Chain of KRAS^G12C (P01116 1-169 isoform P01116-2 G12C/C118A): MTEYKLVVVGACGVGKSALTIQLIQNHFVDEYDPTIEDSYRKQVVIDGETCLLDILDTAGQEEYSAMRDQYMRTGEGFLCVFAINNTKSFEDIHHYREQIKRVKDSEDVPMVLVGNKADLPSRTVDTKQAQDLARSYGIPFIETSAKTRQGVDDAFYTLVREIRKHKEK

The IC50 is the concentration needed to halve the response being measured. Low readings indicate greater potency, high ones weaker potency. As for `C=CC(=O)N1CCN(C2CN(c3cc(N4CCC5(CCC(=O)N5)CC4)nc(C(F)(F)F)c3C#N)C2)CC1` [Compound 3-016], the IC50 was above 5000 nM in the assay with MIA PaCa-2 cells (Homo sapiens, MIA PaCa-2, 72 h); 969 nM at KRAS^G12C; above 5 µM in the assay on A549 cells (A549).

For `C=CC(=O)N1CCN(C2CN(c3cc(N4CCC5(CC4)OCc4cnn(C)c45)nc(C(F)(F)F)c3C#N)C2)CC1` [Compound 3-049, 4-(3-(4-acryloylpiperazin-1-yl)azetidin-1-yl)-6-(1-methyl-1,4-dihydrospiro[furo[3,4-c]pyrazole-6,4′-piperidin]-1′-yl)-2-(trifluoromethyl)nicotinonitrile], the IC50 in the assay on MIA PaCa-2 cells (Homo sapiens, MIA PaCa-2, 72 h) was 979 nM; at KRAS^G12C, 664 nM; in the assay on A549 cells (A549), above 5 µM.

Regarding `C=CC(=O)N1CCN(C2CN(c3cc(N4CCC5(CC4)c4ccccc4C(=O)N5C)nc(C(F)(F)F)c3C#N)C2)CC1` [Compound 3-004, 4-(3-(4-Acryloylpiperazin-1-yl)azetidin-1-yl)-6-(2-methyl-3-oxospiro[isoindoline-1,4′-piperidin]-1′-yl)-2-(trifluoromethyl)nicotinonitrile], the IC50 with MIA PaCa-2 cells (Homo sapiens, MIA PaCa-2, 72 h) was 527 nM; at KRAS^G12C it was 154 nM; with A549 cells (A549) it was above 5 µM.

On to `C=CC(=O)N1CCN([C@@H]2CN(c3cc(N4CCC5(CC4)OCCc4nccc(C)c45)nc(C(F)(F)F)n3)[C@@H]2C)CC1` [Compound 3-094, 1-(4-((2R,3R)-2-methyl-1-(6-(4′-methyl-7′,8′-dihydro-1H-spiro[piperidine-4,5′-pyrano[4.3-b]pyridin]-1-yl)-2-(trifluoromethyl)-4-pyrimidinyl)-3-azetidinyl)-1-piperazinyl)-2-propen-1-one], for which the IC50 in the assay on MIA PaCa-2 cells (Homo sapiens, MIA PaCa-2, 72 h) was 175 nM; on KRAS^G12C, 52 nM; with A549 cells (A549), above 5 µM.

Turning to `C=CC(=O)N1CCN([C@@H]2CN(c3cc(N4CCC5(CC4)OCc4ncsc45)nc(C(F)(F)F)n3)[C@@H]2C)CC1` [Compound 3-001, 1-(4-((2R,3R)-1-(6-(4H-Spiro[furo[3,4-d]thiazole-6,4′-piperidin]-1′-yl)-2-(trifluoromethyl)pyrimidin-4-yl)-2-methylazetidin-3-yl)piperazin-1-yl) prop-2-en-1-one], the IC50 is 665 nM with MIA PaCa-2 cells (Homo sapiens, MIA PaCa-2, 72 h); 376 nM at KRAS^G12C; above 5 µM in the assay on A549 cells (A549).

In the case of `C=CC(=O)N1CCN([C@@H]2CN(c3cc(N4CCC5(CC4)c4c(C)ccnc4C4(COC4)C5F)nc(C(F)(F)F)n3)[C@@H]2C)CC1` (stereo partly drawn) [Compound 3-093, 1-(4-((2R,3R)-1-(6-(6′-fluoro-4′-methyl-1″H-dispiro[oxetane-3,7′-cyclopenta[b]pyridine-5′,4″- piperidin]-1″-yl)-2-(trifluoromethyl)-4-pyrimidinyl)-2-methyl-3-azetidinyl)-1-piperazinyl)-2-propen-1-one], the IC50 in the assay on MIA PaCa-2 cells (Homo sapiens, MIA PaCa-2, 72 h) is 271 nM; on KRAS^G12C, 107 nM; in the assay with A549 cells (A549) it was above 5 µM.

As to `C=CC(=O)N1CCN([C@@H]2CN(c3cc(N4CCC5(CC4)OC(C)(C)c4nccc(C)c45)nc(C(F)(F)F)n3)[C@@H]2C)CC1` [Compound 3-095], the IC50 with MIA PaCa-2 cells (Homo sapiens, MIA PaCa-2, 72 h) is 159 nM; at KRAS^G12C it was 31 nM; in the assay with A549 cells (A549), above 5 µM.

As for `C=CC(=O)N1CCN([C@@H]2CN(c3cc(N4CCC5(CC4)OCC=C5C)nc(C(F)(F)F)n3)[C@@H]2C)CC1` [Compound 3-061, 1-(4-((2R,3R)-2-Methyl-1-(6-(4-methyl-1-oxa-8-azaspiro[4.5]dec-3-en-8-yl)-2-(trifluoromethyl)pyrimidin-4-yl)azetidin-3-yl)piperazin-1-yl)prop-2-en-1-one], the IC50 in the assay with MIA PaCa-2 cells (Homo sapiens, MIA PaCa-2, 72 h) is 936 nM; at KRAS^G12C, 184 nM; in the assay on A549 cells (A549) it was above 5 µM.

Turning to `C=CC(=O)N1CCN(C2CN(c3cc(N4CCC5(CC4)c4ccccc4CN5C)nc(C(F)(F)F)c3C#N)C2)CC1` [Compound 3-014], the IC50 is 694 nM with MIA PaCa-2 cells (Homo sapiens, MIA PaCa-2, 72 h); 498 nM on KRAS^G12C; above 5 µM with A549 cells (A549).

On to `C=CC(=O)N1CCN([C@@H]2CN(c3cc(N4CCC5(CC4)OCCC5=C)nc(C(F)(F)F)n3)[C@@H]2C)CC1` [Compound 3-074, 1-(4-((2R,3R)-2-Methyl-1-(6-(4-methylene-1-oxa-8-azaspiro[4.5]decan8-yl)-2-(trifluoromethyl)pyrimidin-4-yl)azetidin-3-yl)piperazin-1-yl) prop-2-en-1-one], for which the IC50 was 1160 nM with MIA PaCa-2 cells (Homo sapiens, MIA PaCa-2, 72 h); 423 nM at KRAS^G12C; above 5 µM in the assay on A549 cells (A549).

For the molecule `C=CC(=O)N1CCN([C@@H]2CN(c3cc(N4CCC5(CC4)OC[C@H](COC)n4ncc(C)c45)nc(C(F)(F)F)n3)[C@@H]2C)CC1` [Compound 3-098], the IC50 with MIA PaCa-2 cells (Homo sapiens, MIA PaCa-2, 72 h) was 224 nM; at KRAS^G12C, 131 nM; in the assay on A549 cells (A549) it was above 5 µM.

Turning to `C=CC(=O)N1CCN(C2CN(c3cc(N4CCC5(CCC(=O)N5C)CC4)nc(C(F)(F)F)c3C#N)C2)CC1` [Compound 3-075, 4-(3-(4-Acryloylpiperazin-1-yl)azetidin-1-yl)-6-(1-methyl-2-oxo-1,8-diazaspiro[4.5]decan-8-yl)-2-(trifluoromethyl)nicotinonitrile], the IC50 with MIA PaCa-2 cells (Homo sapiens, MIA PaCa-2, 72 h) was 2800 nM; at KRAS^G12C, 704 nM; in the assay with A549 cells (A549), above 5 µM.

For `C=CC(=O)N1CCN([C@@H]2CN(c3cc(N4CCC5(CC4)OC[C@H](C)n4ncc(C)c45)nc(C(F)(F)F)n3)[C@@H]2C)CC1` [Compound 3-101, 1-(4-((2R,3R)-1-(6-((7′S)-3′,7′-dimethyl-6′,7′-dihydro-1H-spiro[piperidine-4,4′-pyrazolo[5.1-c][1,4]oxazin]-1-yl)-2-(trifluoromethyl)-4-pyrimidinyl)-2-methyl-3-azetidinyl)-1-piperazinyl)-2-propen-1-one], the IC50 in the assay with MIA PaCa-2 cells (Homo sapiens, MIA PaCa-2, 72 h) is 259 nM; at KRAS^G12C it was 70 nM; in the assay with A549 cells (A549), above 5 µM.

With `C=CC(=O)N1CCN([C@@H]2CN(c3cc(N4CCC5(CC4)OC(C)(C)c4nccc(C)c45)nc(C(F)F)n3)[C@@H]2C)CC1` [Compound 3-096, 1-(4-((2R,3R)-1-(2-(difluoromethyl)-6-(4,7,7-trimethyl-1′H,7H-spiro[furo[3,4-b]pyridine-5,4′-piperidin]-1′-yl)-4-pyrimidinyl)-2-methyl-3-azetidinyl)-1-piperazinyl)-2-propen-1-one], the concentration for half-maximal inhibition (IC50) is 267 nM with MIA PaCa-2 cells (Homo sapiens, MIA PaCa-2, 72 h); 69 nM on KRAS^G12C; above 5 µM in the assay on A549 cells (A549).

As for `C=CC(=O)N1CCN([C@@H]2CN(c3cc(N4CC[C@]5(C[C@H]4C)OCCc4ncsc45)nc(C(F)(F)F)n3)[C@@H]2C)CC1` (single isomer, unassigned) [Compound 3-091-1], the IC50 was 331 nM in the assay on MIA PaCa-2 cells (Homo sapiens, MIA PaCa-2, 72 h); 54 nM on KRAS^G12C; above 5 µM in the assay with A549 cells (A549).

Take `C=CC(=O)N1CCN([C@@H]2CN(c3cc(N4CCC5(CC4)OCC=C5C)nc(C(F)F)c3C)[C@@H]2C)CC1` [Compound 3-057, 1-(4-((2R,3R)-1-(2-(Difluoromethyl)-3-methyl-6-(4-methyl-1-oxa-8-azaspiro[4.5]dec-3-en-8-yl)pyridin-4-yl)-2-methylazetidin-3-yl)piperazin-1-yl) prop-2-en-1-one]: the IC50 is 272 nM in the assay with MIA PaCa-2 cells (Homo sapiens, MIA PaCa-2, 72 h); 288 nM on KRAS^G12C; above 5 µM in the assay on A549 cells (A549).

For `C=CC(=O)N1CCN([C@@H]2CN(c3cc(N4CC[C@]5(C[C@H]4C)OC[C@@H](CO)n4ncc(C)c45)nc(C(F)F)n3)[C@@H]2C)CC1` (single isomer, unassigned) [Compound 3-088-1], the IC50 in the assay with MIA PaCa-2 cells (Homo sapiens, MIA PaCa-2, 72 h) is 189 nM; at KRAS^G12C, 106 nM; in the assay with A549 cells (A549) it was above 5 µM.

As to `C=CC(=O)N1CCN(C2CN(c3cc(N4CCC5(CCCO5)CC4)nc(C(F)(F)F)c3C#N)C2)CC1` [Compound 3-039, 4-(3-(4-acryloylpiperazin-1-yl)azetidin-1-yl)-6-(1-oxa-8-azaspiro[4.5]decan-8-yl)-2-(trifluoromethyl)nicotinonitrile], the IC50 was 2410 nM in the assay with MIA PaCa-2 cells (Homo sapiens, MIA PaCa-2, 72 h); 1650 nM on KRAS^G12C; above 5 µM in the assay with A549 cells (A549).

For the molecule `C=CC(=O)N1CCN(C2CN(c3cc(N4CCC5(CC4)OCc4cnccc45)nc(C(F)(F)F)c3C#N)C2)CC1` [Compound 3-043], the IC50 in the assay on MIA PaCa-2 cells (Homo sapiens, MIA PaCa-2, 72 h) is 1290 nM; on KRAS^G12C, 1590 nM; in the assay with A549 cells (A549), above 5 µM.

Turning to `C=CC(=O)N1CCN([C@@H]2CN(c3cc(N4CCC5(CC4)OCCC=C5C)nc(C(F)(F)F)n3)[C@@H]2C)CC1` [Compound 3-008, 1-(4-((2R.3R)-2-methyl-1-(6-(5-methyl-1-oxa-9-azaspiro[5.5]undec-4-en-9-yl)-2-(trifluorometh-yl)pyrimidin-4-yl)azetidin-3-yl)-piperazin-1-yl)prop-2-en-1-one], the IC50 is 625 nM in the assay with MIA PaCa-2 cells (Homo sapiens, MIA PaCa-2, 72 h) and 275 nM on KRAS^G12C.

As to `C=CC(=O)N1CCN([C@@H]2CN(c3cc(N4CCC5(CC4)OCCc4nccc(C)c45)nc(C(F)(F)F)n3)[C@@H]2C)CC1` [Compound 3-085, 1-(4-((2R,3R)-2-methyl-1-(6-(4′-methyl-7′,8′-dihydrospiro[piperidine-4,5′-pyrano[4,3-b]pyridin]-1-yl)-2-(trifluoromethyl)pyrimidin-4-yl)azetidin-3-yl)piperazin-1-yl)prop-2-en-1-one], the figures for the IC50 with MIA PaCa-2 cells (72 h) and with A549 cells were 180 nM and above 5 µM, respectively.
